# Literature values, collected in patent US8697115B2, “Method of improving antioxidant status of an infant” (Abbott Laboratories, priority 2002, dated 2014).
# Experiments:
# [1] = Food Chemicals Codex effective Jul. 1, 1996
# [2] = α-tocopherol equivalents; from Vitamin E in Health and Disease, 1993
# [3] = capsule with both forms for 5 days prior to giving birth
# [4] = adults
Structure (SMILES),Activity (IU/mg) [1],Activity as α-TE (mg/mg compound) [2],other results
"Cc1c(C)c2c(c(C)c1O)CCC(C)(CCCC(C)CCCC(C)CCCC(C)C)O2 (racemic) [d,l-α-tocopherol, 2DL,4′DL,8′DL-α-tocopherol]",1.1 IU/mg,,
"Cc1c(C)c2c(c(C)c1O)CC[C@@](C)(CCC[C@H](C)CCC[C@H](C)CCCC(C)C)O2 [RRR-α-tocopherol, 2R,4′R,8′R-α-tocopherol]",1.49 IU/mg,1.0 mg/mg compound,amount in placental cord blood relative to synthetic vitamin E [3]: ~3.5 times; concentration in the mother's own blood at delivery relative to synthetic vitamin E ([3]; in words): nearly twice; enrichment in VLDL secreted by the liver over all-rac-α-tocopherol [4]: 4 fold
CC(C)=CCC/C(C)=C/CC/C(C)=C/CC[C@]1(C)CCc2c(C)c(O)c(C)c(C)c2O1 [RRR-α-tocotrienol],,0.3 mg/mg compound,
Cc1cc(O)c(C)c2c1O[C@](C)(CCC[C@H](C)CCC[C@H](C)CCCC(C)C)CC2 [RRR-β-tocopherol],,0.5 mg/mg compound,
CC(C)=CCC/C(C)=C/CC/C(C)=C/CC[C@]1(C)CCc2c(C)c(O)cc(C)c2O1 [RRR-β-tocotrienol],,0.05 mg/mg compound,
Cc1c(O)cc2c(c1C)O[C@](C)(CCC[C@H](C)CCC[C@H](C)CCCC(C)C)CC2 [RRR-γ-tocopherol],,0.1 mg/mg compound,
Cc1cc(O)cc2c1O[C@](C)(CCC[C@H](C)CCC[C@H](C)CCCC(C)C)CC2 [RRR-δ-tocopherol],,0.03 mg/mg compound,
"CC(=O)Oc1c(C)c(C)c2c(c1C)CCC(C)(CCCC(C)CCCC(C)CCCC(C)C)O2 (stereo not drawn) [d,l-α-tocopherol acetate]",1.0 IU/mg,0.74 mg/mg compound,
"Cc1c(C)c2c(c(C)c1OC(=O)CCC(=O)O)CCC(C)(CCCC(C)CCCC(C)CCCC(C)C)O2 (stereo not drawn) [d,l-α-tocopherol acid succinate]",0.89 IU/mg,,
CC(=O)Oc1c(C)c(C)c2c(c1C)CC[C@@](C)(CCC[C@H](C)CCC[C@H](C)CCCC(C)C)O2 [d-α-tocopherol acetate],1.36 IU/mg,,preferential utilization compared to all-rac-α-tocopheryl acetate ([4]; in words): about twice
Cc1c(C)c2c(c(C)c1OC(=O)CCC(=O)O)CC[C@@](C)(CCC[C@H](C)CCC[C@H](C)CCCC(C)C)O2 [d-α-tocopherol acid succinate],1.21 IU/mg,,
